The values that follow are results of earlier work, collected in patent US11382901B2, “Tropicamide-based ophthalmic formulations” (FOR HEALTH PHARMA S.R.L., priority 2017, dated 2022).

For data set [1], the system named is NIH/3T3 cells (murine fibroblasts).
For data set [2], the system named is RAW 264.7 cells (murine macrophage-like).

As for tyloxapol, the in vitro toxicity result in data set [1] and in data set [2] was “considerable in vitro toxicity” each time.
